Measurements reported in patent US20160220557A1, “USE OF ACETYL-COA CARBOXYLASE INHIBITORS FOR TREATING ACNE VULGARIS” (PFIZER INC., priority 2013, published 2016).

What was measured:
CYP2D6 = target: T1, CYP2D6 (Homo sapiens, UniProt P10635); assay: P450 inhibition in liver microsomes with probe substrates; type: in vitro ADME
T1 construct: from tissue; host or cells: liver microsomes

[1] = test system: de novo lipogenesis (DNL); assay: Suppression of DNL in healthy human volunteers; type: in vivo; conditions: dose-dependent
[2] = in vivo
CYP3A = CYP3A (Homo sapiens, UniProt P08684); assay: in vitro; conditions: microsomes
clinical = conditions: human, in vivo, po
CYP1A2 = target: T2, CYP1A2 (Homo sapiens, UniProt P05177); assay: biochemical
T2 sequence (P05177 1-516): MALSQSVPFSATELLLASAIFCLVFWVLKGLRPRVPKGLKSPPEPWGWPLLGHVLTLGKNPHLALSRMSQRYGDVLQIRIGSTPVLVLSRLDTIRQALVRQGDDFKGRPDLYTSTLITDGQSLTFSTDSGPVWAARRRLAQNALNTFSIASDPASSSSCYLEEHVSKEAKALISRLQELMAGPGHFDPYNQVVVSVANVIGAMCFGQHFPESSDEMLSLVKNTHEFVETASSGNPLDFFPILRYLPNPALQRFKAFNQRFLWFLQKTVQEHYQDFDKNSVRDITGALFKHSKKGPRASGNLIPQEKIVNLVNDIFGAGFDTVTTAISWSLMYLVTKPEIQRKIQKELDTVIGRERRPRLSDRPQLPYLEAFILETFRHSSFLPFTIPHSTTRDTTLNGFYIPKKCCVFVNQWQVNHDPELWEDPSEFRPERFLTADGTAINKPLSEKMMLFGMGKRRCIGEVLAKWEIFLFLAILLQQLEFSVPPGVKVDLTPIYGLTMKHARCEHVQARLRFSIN

[3] = test system: de novo lipogenesis in ear skin and liver; assay: Effect of oral and topical ACCi on DNL (14C-acetate incorporation) in Syrian hamsters; type: in vivo, Syrian hamster; conditions: topical 100 mg/ml single dose, vs. vehicle
Protocol: Male Syrian gold Hamster at ˜10 weeks were maintained adlibitum on standard hamster chow and water. […] Example 3 for topical delivery was prepared as a solution in a vehicle consisting of 70:30 (Ethanol:propylene glycol) at a concentration of 100 mg/ml. Topical administration of a single dose (5 ul/ear) was applied to hamster ears with a pipette (2-10 ul) tip adhering to 2 minute intervals following the dosing order. The dosing timing allowed for the formulation to spread evenly over an approximate 1 sq cm area and absorb/dry prior to returning the animal to the cage. 1 hour post ACCi dose each animal received an IP injection of ^14C-labeled acetate (ARC0158B diluted in saline) following the 2 minute interval timing format. Each animal received an individually calculated amount of ^14C-acetate based on body weight (0.1 μCi/g in a dosing volume of 2 μl/g). One hour after the ^14C-Acetate injection animals were sacrificed by CO2 asphyxiation.
Liver and ear skin were collected for de novo lipogenesis determinations (^14C incorporation to lipid). Briefly, 2 liver punches totaling ˜400 mg of liver were collected from the bifurcated median lobe of each animal (using a 8 mm diameter Sklar Tru-punch—Sklar Instruments), rinsed with saline and blotted dry. The tissues were placed into pre-weighed in glass tubes (Pyrex 9826-16×125 mm with PTFE lined caps) containing NaOH (1.5 mL of 2.5 M).
Ear skin samples were prepared for analysis in the following manner. One 8 mm distal biopsy punch (using an 8 mm diameter Sklar Tru-punch—Sklar Instruments) (2 per animal) was taken just above the anatomical “V” in the aural cartilage to standardize sample collection area. The punch was then split into 2 layers (anterior and posterior). The anterior (front) surface is retained for analysis. The anterior skin was placed into pre-weighed in glass tubes (Pyrex 9826-16×125 mm with PTFE lined caps) containing NaOH (1.5 mL of 2.5 M).
Upon completion of the study, the liver and ear skin samples in NaOH were weighed and this weight was used to calculate the mass of the tissue collected. The capped tubes were heated in an dry oven (˜60° C.) until the tissue was fully degraded (˜4-6 hr, gentle vortexing 2-3 times during heating). Following degradation and cooling absolute ethanol (2.5 mL) was added to each sample. The tubes were recapped and vigorously mixed (vortexed) for 60 seconds and allowed to settle overnight at RT. Petroleum ether (4.8 mL) was added to each tube, recapped and the samples were vigorous mixed (60 sec). […] Aquasol-2 scintillation fluid (10 mL) (or other compatible scintillation fluid) was added to each vial and after vortexing the samples were counted in an appropriate scintillation counter (e g. Wallac Rack-Beta 1409 LSC). […]

T1 sequence (P10635 whole entry): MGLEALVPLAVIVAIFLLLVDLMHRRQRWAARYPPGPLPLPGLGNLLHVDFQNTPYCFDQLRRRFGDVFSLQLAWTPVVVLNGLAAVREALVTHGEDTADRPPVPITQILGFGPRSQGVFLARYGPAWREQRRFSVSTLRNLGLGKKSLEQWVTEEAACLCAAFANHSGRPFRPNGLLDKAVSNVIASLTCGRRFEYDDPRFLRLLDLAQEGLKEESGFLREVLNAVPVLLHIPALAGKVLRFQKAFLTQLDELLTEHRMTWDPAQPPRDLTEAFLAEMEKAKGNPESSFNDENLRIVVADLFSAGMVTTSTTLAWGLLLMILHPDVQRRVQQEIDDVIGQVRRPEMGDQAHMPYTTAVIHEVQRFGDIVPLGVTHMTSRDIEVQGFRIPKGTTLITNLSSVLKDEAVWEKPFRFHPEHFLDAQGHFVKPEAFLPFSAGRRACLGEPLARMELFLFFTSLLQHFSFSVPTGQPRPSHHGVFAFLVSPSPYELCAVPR
Sequence of CYP3A (P08684 2-503): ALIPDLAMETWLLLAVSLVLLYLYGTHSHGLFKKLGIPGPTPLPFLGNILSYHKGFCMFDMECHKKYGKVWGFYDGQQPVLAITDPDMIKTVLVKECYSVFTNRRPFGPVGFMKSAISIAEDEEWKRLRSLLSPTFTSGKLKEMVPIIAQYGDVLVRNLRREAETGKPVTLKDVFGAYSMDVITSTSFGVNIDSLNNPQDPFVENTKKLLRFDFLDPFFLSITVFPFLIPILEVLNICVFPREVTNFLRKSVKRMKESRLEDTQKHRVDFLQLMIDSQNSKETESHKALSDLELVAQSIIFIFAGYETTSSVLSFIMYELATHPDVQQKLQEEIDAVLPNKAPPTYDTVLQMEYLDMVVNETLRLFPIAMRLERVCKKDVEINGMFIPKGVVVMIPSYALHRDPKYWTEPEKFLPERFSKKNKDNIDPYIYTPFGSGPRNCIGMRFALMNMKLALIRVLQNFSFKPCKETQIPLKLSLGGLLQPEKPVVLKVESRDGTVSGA

| SMILES | IC50 (CYP2D6) [µM] | suppression of DNL in healthy human volunteers [1] | exposures (AUC and Cmax) vs. dose [2] | effect of food on absorption ([2]; po) | frequency of adverse events vs. dose and duration ([2]; po) | IC50 (CYP3A) [µM] | half-life (clinical) [h] | IC50 (CYP1A2) [µM] | incorporation of de novo synthesized fatty acids in liver [3] | incorporation of de novo synthesized fatty acids in skin [3] |
| --- | --- | --- | --- | --- | --- | --- | --- | --- | --- | --- |
| Cc1nc2ccc(C(=O)N3CCC4(CC3)CC(=O)c3c(cnn3C(C)C)C4)cc2[nH]1 [Example 1, 1-isopropyl-1′-(2-methyl-1H-benzo[d]imidazole-5-carbonyl)-4,6-dihydrospiro[indazole-5,4′-piperidin]-7(1H)-one] | > 30 | up to 80% | increased dose-proportionally | modestly decreased the rate but not the extent | no dose- or duration-related increase | > 30 | 10 to 13 | > 30 | – | – |
| CC(C)n1ncc2c1C(=O)CC1(CCN(C(=O)c3ccc4ccc(N)nc4c3)CC1)C2 [Example 3, 1′-(2-aminoquinoline-7-carbonyl)-1-isopropyl-4,6-dihydrospiro[indazole-5,4′-piperidin]-7(1H)-one] | – | – | – | – | – | – | – | – | failed to inhibit | failed to inhibit |
